Data set [1] concerns HRPC patients. Kind of data set: Combination therapy by dose of estramustine phosphate, Example 3. In kind it is in vivo, human.
The subject of data set [2] is PBMCs. The data set can be described thus: Immunosuppression during combination therapy, Example 2. Particulars: half dose (280 mg/day) with the peptide.
Data set [3] concerns PBMCs. The data set can be described thus: Monitoring of estramustine-induced immunosuppression (IFN-γ production of PBMCs to PHA, EBV-peptide and vaccinated peptides), Example 1.
In data set [4] the test system is HRPC patients. Particulars: phase III study; cited from earlier work.
Setting [5] is: estramustine 140 mg/day combined with peptide vaccination, 4 cases.
Setting [6] is: estramustine 280 mg/day combined with peptide vaccination, 32 cases.
The mark [7] stands for this setting: estramustine 560 mg/day combined with peptide vaccination, 5 cases.

Each structure is given as a SMILES string.

As to `C[C@]12CC[C@@H]3c4ccc(OC(=O)N(CCCl)CCCl)cc4CC[C@H]3[C@@H]1CC[C@@H]2OP(=O)(O)O` [estramustine phosphate, Estramustine phosphate], in the data set on HRPC patients [1] (setting [5]), the “Clinical Response, number of PD” value is listed as 3; the “Clinical Response, number of SD” value is given as 1; the “Response, Cellular Immunity” value is 3/4; the “Response, Humoral Immunity” value is on record as 4/4. In addition, in the data set with HRPC patients [1] (setting [6]), the “Clinical Response, number of PD” value stood at 12PD; the “Clinical Response, number of PR” value is 10PR,; the “Clinical Response, number of SD” value is 10SD,; the “Response, Cellular Immunity” value is given as 23/31. In addition, the “Response, Humoral Immunity” value with HRPC patients [1] (setting [6]) is given as 27/32. Moreover, in the data set on HRPC patients [1] (setting [7]), the “Clinical Response, number of PD” value worked out at 5PD; the “Response, Cellular Immunity” value is reported as 0/3; the “Response, Humoral Immunity” value was 1/2. Further, the Immunosuppression result with PBMCs [2] is given as “no significant immunosuppression in most cases”. Also, the Immune suppression result with PBMCs [3] (full dose (560 mg/day) with peptide vaccination, cases 2 and 3, recovered on discontinuing) was “severe immune suppression”. The Immune suppression result in the data set with PBMCs [3] (half/low dose (280 mg/day) with the peptide, 8 cases tested) was “no significant immune suppression”.
In the case of `CC[C@]1(O)C[C@@H]2CN(CCc3c([nH]c4ccccc34)[C@@](C(=O)OC)(c3cc4c(cc3OC)N(C)[C@H]3[C@@](O)(C(=O)OC)[C@H](OC(C)=O)[C@]5(CC)C=CCN6CC[C@]43[C@@H]65)C2)C1` [vinblastine], in the data set with HRPC patients [4], the “Rate of neutropenia, grade 2” value was 27%; the “Rate of neutropenia, grade 3” value is 18%; the “Rate of neutropenia, grade 4” value is listed as 9%.

The record behind these values is patent US7718614B2 (Kurume University, priority 2003, dated 2010).
